Measured values: US20050153395A1, “Unique integrin binding site in connective tissue growth factor (CTGF)” (CHILDREN'S HOSPITAL INC., priority 2003, published 2005)

Assays:
[1] = biological target: integrin α5β1 (Homo sapiens, UniProt P05556+P08648); test: Solid phase ELISA of integrin α5β1 binding; details: for reversal of EDTA inhibition of α5β1 binding to CTGF4: 10 mM cation; for inhibition of cell-free binding of integrin α5β1 to FN: FN 4 μg/ml
Description: In a second approach, a solid phase binding assay was used in which CTGF1-4 or FN were individually coated onto microtiter wells that were subsequently incubated with purified integrin α5β1. The presence of immobilized integrin α5β1 was detected by ELISA using an anti-integrin α5β1 antibody similar to the methods described in Example 3 above. In addition, CTGF1-4 bound to integrin α5β1 in a dose-dependent manner, with maximal binding at 2 μg/ml CTGF. This level of CTGF1-4 (2 μg/ml) binding was the same as that elicited by 2 μg/ml FN, a well known ligand of integrin α5β1. In a similar experiment, 2 μg/ml of CTGF1-4;CTGF3-4 or CTGF4 were individually precoated onto microtiter wells. Using the solid-phase assay, integrin α5β1 bound to CTGF1-4, CTGF3-4 or CTGF4 See FIG. 5 (Panel B).
To directly analyze whether α5β1 integrin binds to CTGF4, microtiter wells coated with CTGF4 (2 μg/ml) or FN (4 μg/ml) were used in an ELISA assay to detect integrin binding, as described in Example 3. For these assays, 1 μg/ml integrin α5β1, alone or in the presence of 35 μM of P2peptide (CTGF[257-272]) and 35 μM of P5 peptide (CTGF [285-291]), were added to the precoated plates. […] The binding between CTGF4 and integrin α5 β1 was blocked by peptide P5 (CTGF [285-291]) or peptide P2 (CTGF[257-272]). […]

[2] = test system: pancreatic stellate cells (PSC); test: PSC adhesion assay on coated wells; type: cell-based, rat; details: for restoration of CTGF-mediated PSC adhesion after EDTA: 10 mM cation, 5 mM EDTA; for inhibition of PSC adhesion to CTGF4: 2 μg/ml CTGF4 coat, EDTA 5 mM, antibodies 25 μg/ml, heparin 2 μg/ml, peptides 35 μM; for PSC adhesion supported by the coated substance: coated at 2 μg/ml; for inhibition of FN-mediated PSC adhesion: fibronectin coat
Description: Rat PSCs were isolated by a modification of the method described by Phillips et al., Gut; 52:677-82, 2003. Briefly, pancreatic tissue was digested in situ with 0.03% collagenase P (Roche, Indianapolis, Ind.) in HBSS by perfusion through the thoracic aorta. This protocol was approved by the Institutional Animal Care and Use Committee of Children's Research Institute, Columbus, Ohio. The tissue was pooled, minced with scissors, and then digested with 0.05% collagenase P, 0.02% protease XIV (Sigma, St. Louis), and DNase I (Roche, Indianapolis, Ind.) in HBSS. The resulting cell suspension was centrifuged in a 12% Optiprep gradient at 1400 g for 14 minutes. Stellate cells separated into a hazy band just above the interface of a the gradient and the aqueous buffer. This band was harvested, and the cells washed and resuspended in DMEM supplemented with 25 mM Hepes buffer, 10% FBS, and 100 U/ml penicillin in, 100 μg/ml streptomycin. The, cells were maintained at 37° C. in a humidified atmosphere of 5% CO2/95% air.
The ability of activated PSC to adhere to non-tissue culture plastic microtiter wells coated with recombinant CTGF1-4, CTGF3-4 or CTGF4 was investigated. The solid phase binding assay was carried out as described in Example 2. […] To assess the possibility that CTGF-mediated PSC adhesion involved cell surface integrins, the effect of divalent cations on cell adhesion was examined, as described in Example 2. […]
Because CTGF is a heparin-binding protein, this property was further investigated.
To identify the peptides that bind to PSCs, cell adhesion assays were carried out as described in Example 3.
To further investigate the peptide binding, P2 or P5 (10 μM) or vehicle buffer alone (no add) were added to PSC cell suspensions for 30 minutes at room temperature.

[3] = test system: hepatic stellate cells (HSC); test: HSC adhesion assay on coated wells (CyQUANT fluorescence); type: cell-based, rat; details: for effect of divalent cation on HSC adhesion to CTGF4: 10 mM cation, after EDTA; for inhibition of CTGF4-mediated HSC adhesion: wells coated 2 μg/ml CTGF4, antibody/IgG 25 μg/ml, heparin 2 μg/ml; for HSC adhesion supported by the coated substance: coated at 2 μg/ml
Description: CTGF4 is known to be expressed in hepatic stellate cells (HSC) and to induce proliferation and extracellular matrix (ECM) production in these cells. (Williams et al., J Hepatol 32, 754-761, 2000; Paradis et al., Lab Invest 82, 767-774, 2002). The following experiments were carried out to determine if HSCs adhere to CTGF. HSCs were isolated from normal Sprague-Dowley rate by sequential perfusion with pronase/collagenase and purified by density gradient separation as described in Vyas et al. (Gastroenterology 109: 889-898, 1995).
The cells were subsequently detached using 1 mM EDTA PBS (137 mM NaCl, 2.7 mM KCl, 4.3 mM Na2HPO4, 1.4 mM KH2PO4, pH 7.3), washed twice in DMEM and resuspended in serum free medium containing 0.5% BSA. The cells-were plated (1.25×10^4 cells/well) in a 96 well plate coated with one of the following: 2 μg/ml CTGF isoform (CTGF1-4, CTGF3-4, CTGF4), 1 μg/ml laminin, or 4 μg/ml vitronectin and incubated for 20 minutes at 37° C. Subsequently the cells were washed with PBS and the adherent cells were fixed with 10% formalin and stained with CyQUANT GR dye/cell lysis buffer (Molecular Probes , Eugene, Oreg.) according to the manufacturer's instructions. The number of cells that adhered to CTGF isoforms or ECM protein was quantified by measuring the sample fluorescence intensity at Ex/Em: 480/520 nm using a micro-plate reader (CytoFluor™ 2350).
To determine if the CTGF-mediated HSC adhesion was carried out through integrin receptors, the experiment described above were carried out in the presence and absence of 10 mM EDTA. […] It is widely believed that Mn^2+ induces conformational shifts that mimic the physiological activation of β1 and β3 integrins (Roberts et al., J Biol Chem 278: 1975-1985, 2003, van der Pauw et al., J Periodontal Res 37: 317-323, 2002) as Mn^2+-induced activation leads to enhanced ligand-binding affinity and cell adhesion (Mould et al., J Biol Chem 277: 19800-19805, 2002, Loftus & Liddington J Clin Invest 100: S77-81, 1997, Lin et al., J Biol Chem 272: 14236-14243, […]).
Synthetic peptides GRGDsp (1 mM), GRGEsp (1 mM), Echistatin (2 μM) or vehicle buffer alone were added to the, HSC culture medium 30 minutes prior to plating.
In addition, adhesion assays as described in Example 1 were carried out in CTGF4 coated plates in the presence and absence of monoclonal antibody specific for αvβ3 (LM609).

[4] = test system: CTGF promoter; test: CTGF promoter luciferase reporter pCCN2-Luc in PSCs; type: cell-based, rat; details: P<0.01 compared with no stimulation
Description: TGF-β1 is a well characterized transcriptional activator of CTGF in other cell types. To further examine the mechanism by which TGF-β1 and other fibrogenic stimulators could influence CTGF production in PSCs, CTGF promoter activity in PSCs was evaluated using the luciferase reporter, pCCN2-Luc, as described in Gao et al., (J Hepatol 2004;40:431-8).

[5] = biological target: integrin αvβ3 (Homo sapiens, UniProt P05106+P06756); test: Solid phase ELISA of integrin αvβ3 binding; details: for inhibition of αvβ3 binding to CTGF4: 35 μM peptide pre-incubated with 1 μg/ml αvβ3
Description: Solid phase binding studies were also performed to investigate the binding of CTGF isoforms and αvβ3. Each CTGF isoform or vitronectin was individually coated onto microtiter wells at different concentrations, and the subsequent binding of αvβ3 was detected by ELISA using an anti-human αvβ3 monoclonal antibody. […] Saturation of binding occurred at 2 μg/ml for each CTGF isoform and 4 μg/ml for vitronectin.
In order to identify the αvβ3 binding site in CTGF4, eighteen synthetic peptides spanning the entire C-terminal region of CTGF4 (residues 246-349 of SEQ ID NO: 1) were synthesized and used as potential blocking agents in the solid phase binding studies as described in Example 3. Microtiter wells (Dynex Technology) were pre-coated with different CTGF isoforms at desired concentrations at 4° C. for 16 hours, and then blocked with 2% BSA at room temperature for 2 hours. The plates were washed, four times with PBS, pH 7.3, containing 1 mM CaCl2 and 1 mM MgCl2. Integrin αvβ3 (1 μg/ml) was pre-incubated with each synthetic peptide for 1 hour in blocking solution, and then added to each well, and incubated at room temperature for 3 hours. Integrin αvβ3 was detected by successive incubation with anti-human αvβ3 monoclonal antibody diluted in blocking solution (1:1000), and followed by HRP-conjugated goat anti-mouse IgG (1:4000). The color reaction was developed using the horseradish peroxidase ELISA reagents (Chemicon), and the absorbance at 450 nm was measured using Bio Assay Reader (HTS700).
The ability of mutant CTGF4 to bind to integrin αvβ3 was assessed by solid phase ELISA which measured the ability of purified integrin αvβ3 to bind to the CTGF4 mutants.

[6] = test system: PSCs; test: PSC DNA synthesis, [3H]thymidine incorporation; type: cell-based, rat; details: 24 hours; CTGF1-4 effect in 0.1% serum, not in serum-free medium
Description: To measure the effect of CTGF on cell proliferation, DNA synthesis was measured by ^3H incorporation in PSCs. The cells were incubated for 24 hours with 0.2 μCi [^3H] thymidine in each well (24-well plate). The incorporation of [^3H] thymidine into PSC DNA was determined using a scintillation counter after the cells had been washed with PBS, fixed with 10% methanol, treated with cold 5% trichloroacetic acid, and lysed in 0.3 N NaOH.

[7] = test system: PSCs; test: PSC chemotaxis (migration) assay in culture insert; type: cell-based, rat; details: substance in lower chamber
Description: To examine whether CTGF plays a role in PSC migration, a chemotaxis assay was carried out in which the migratory behavior of PSCs in the upper chamber of a culture insert was assessed following addition of CTGF to the lower chamber. […] PSC migration was also promoted by FN, PDGF or TGF-β1.

[8] = EDTA 10 mM, GRGDsp 1 mM, Echistatin 2 μM

Sequence of integrin αvβ3 (P06756 31-889 limits assumed): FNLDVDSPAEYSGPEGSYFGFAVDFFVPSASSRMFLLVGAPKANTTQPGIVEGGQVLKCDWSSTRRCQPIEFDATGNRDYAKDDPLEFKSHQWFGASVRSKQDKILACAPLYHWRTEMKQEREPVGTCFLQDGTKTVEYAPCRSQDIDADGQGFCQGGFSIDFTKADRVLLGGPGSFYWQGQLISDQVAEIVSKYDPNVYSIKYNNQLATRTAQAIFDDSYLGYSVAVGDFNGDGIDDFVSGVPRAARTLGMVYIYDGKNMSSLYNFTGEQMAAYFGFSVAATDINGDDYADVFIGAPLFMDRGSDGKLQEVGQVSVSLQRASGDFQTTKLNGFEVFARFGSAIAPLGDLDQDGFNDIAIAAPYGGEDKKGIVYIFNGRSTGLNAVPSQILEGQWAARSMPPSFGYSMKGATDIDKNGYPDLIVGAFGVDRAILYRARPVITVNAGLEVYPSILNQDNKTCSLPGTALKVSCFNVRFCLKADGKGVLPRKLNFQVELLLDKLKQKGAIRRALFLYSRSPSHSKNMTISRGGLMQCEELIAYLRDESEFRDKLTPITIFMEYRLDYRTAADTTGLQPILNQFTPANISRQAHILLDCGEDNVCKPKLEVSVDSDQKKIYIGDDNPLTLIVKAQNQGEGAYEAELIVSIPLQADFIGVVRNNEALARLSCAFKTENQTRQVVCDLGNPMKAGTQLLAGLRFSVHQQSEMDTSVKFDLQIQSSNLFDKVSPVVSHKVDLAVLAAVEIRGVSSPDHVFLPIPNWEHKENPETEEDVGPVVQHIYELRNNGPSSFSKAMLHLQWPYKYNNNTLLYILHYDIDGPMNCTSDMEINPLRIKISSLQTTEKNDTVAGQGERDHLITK
Sequence of integrin αvβ3 (P06756 891-1048 partner limits assumed): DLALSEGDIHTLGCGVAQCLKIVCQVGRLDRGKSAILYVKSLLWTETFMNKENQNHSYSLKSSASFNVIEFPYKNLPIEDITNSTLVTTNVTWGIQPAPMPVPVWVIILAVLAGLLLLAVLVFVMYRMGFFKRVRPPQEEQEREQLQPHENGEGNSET
Sequence of integrin αvβ3 (P05106 27-788): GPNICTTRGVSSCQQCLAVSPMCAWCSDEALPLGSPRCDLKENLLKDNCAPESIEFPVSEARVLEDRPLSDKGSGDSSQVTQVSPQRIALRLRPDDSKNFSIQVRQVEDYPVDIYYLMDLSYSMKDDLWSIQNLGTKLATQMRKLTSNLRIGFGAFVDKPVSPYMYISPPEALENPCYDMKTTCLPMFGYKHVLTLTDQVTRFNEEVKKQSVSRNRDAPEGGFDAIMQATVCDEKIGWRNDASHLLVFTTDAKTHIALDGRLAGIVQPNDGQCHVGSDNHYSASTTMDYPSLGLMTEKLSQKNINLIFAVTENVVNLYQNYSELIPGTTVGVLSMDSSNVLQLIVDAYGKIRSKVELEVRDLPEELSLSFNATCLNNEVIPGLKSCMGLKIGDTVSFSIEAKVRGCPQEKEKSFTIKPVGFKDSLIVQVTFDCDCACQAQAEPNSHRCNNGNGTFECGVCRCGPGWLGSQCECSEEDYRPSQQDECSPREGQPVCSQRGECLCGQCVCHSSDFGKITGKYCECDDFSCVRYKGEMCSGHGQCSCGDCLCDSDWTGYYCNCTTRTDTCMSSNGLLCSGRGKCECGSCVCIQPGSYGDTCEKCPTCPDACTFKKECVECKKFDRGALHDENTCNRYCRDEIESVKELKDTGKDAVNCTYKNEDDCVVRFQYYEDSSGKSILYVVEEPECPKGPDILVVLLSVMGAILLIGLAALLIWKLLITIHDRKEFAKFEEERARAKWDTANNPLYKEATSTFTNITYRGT
Sequence of integrin α5β1 (P08648 42-894 limits assumed): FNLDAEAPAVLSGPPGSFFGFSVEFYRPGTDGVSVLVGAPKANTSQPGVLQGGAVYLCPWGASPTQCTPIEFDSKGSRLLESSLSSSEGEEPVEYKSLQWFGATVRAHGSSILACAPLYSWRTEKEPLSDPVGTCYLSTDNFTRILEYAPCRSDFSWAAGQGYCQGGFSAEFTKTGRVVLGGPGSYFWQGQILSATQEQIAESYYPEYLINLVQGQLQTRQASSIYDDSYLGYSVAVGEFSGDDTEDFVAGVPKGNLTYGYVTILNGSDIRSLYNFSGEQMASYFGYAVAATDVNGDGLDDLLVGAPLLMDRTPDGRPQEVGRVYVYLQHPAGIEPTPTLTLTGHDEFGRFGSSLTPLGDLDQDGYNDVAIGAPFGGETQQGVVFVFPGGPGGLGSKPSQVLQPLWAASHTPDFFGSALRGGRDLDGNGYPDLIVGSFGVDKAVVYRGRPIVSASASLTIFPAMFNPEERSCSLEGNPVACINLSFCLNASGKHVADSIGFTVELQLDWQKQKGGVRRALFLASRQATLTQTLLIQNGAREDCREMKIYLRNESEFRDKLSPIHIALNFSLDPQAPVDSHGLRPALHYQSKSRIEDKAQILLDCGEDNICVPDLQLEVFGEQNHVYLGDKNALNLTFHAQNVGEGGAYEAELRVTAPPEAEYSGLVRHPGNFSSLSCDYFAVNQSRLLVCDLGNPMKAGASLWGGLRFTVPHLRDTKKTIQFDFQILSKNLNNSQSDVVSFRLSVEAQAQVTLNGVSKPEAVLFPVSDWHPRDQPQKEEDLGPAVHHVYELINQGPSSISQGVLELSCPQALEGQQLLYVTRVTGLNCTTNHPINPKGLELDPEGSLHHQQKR
Sequence of integrin α5β1 (P08648 895-1049 partner limits assumed): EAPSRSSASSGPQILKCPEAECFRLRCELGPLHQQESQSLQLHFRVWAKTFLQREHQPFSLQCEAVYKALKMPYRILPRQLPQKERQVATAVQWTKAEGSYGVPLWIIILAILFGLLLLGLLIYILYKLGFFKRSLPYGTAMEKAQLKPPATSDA
Sequence of integrin α5β1 (P05556 21-798): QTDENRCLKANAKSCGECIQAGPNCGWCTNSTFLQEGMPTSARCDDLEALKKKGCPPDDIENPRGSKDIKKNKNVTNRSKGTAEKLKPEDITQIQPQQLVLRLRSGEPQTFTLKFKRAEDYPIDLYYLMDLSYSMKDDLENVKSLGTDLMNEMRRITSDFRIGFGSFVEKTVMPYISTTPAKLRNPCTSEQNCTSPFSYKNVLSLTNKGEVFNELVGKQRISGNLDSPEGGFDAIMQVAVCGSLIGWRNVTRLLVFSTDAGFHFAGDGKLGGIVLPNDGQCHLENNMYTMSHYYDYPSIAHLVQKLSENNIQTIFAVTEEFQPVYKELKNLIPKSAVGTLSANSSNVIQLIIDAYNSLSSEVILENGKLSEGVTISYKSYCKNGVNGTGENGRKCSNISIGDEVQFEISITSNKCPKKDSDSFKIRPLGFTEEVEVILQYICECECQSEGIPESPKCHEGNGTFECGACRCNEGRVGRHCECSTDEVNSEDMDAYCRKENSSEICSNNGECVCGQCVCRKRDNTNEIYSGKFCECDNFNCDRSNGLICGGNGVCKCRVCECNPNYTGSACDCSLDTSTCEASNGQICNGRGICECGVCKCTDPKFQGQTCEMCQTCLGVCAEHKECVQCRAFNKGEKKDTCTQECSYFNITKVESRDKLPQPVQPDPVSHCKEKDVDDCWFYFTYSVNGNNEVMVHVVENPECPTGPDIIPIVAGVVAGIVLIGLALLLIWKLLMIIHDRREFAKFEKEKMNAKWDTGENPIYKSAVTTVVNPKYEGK

## [Ca+2] [Ca^2+]
[1]
  reversal of EDTA inhibition of α5β1 binding to CTGF4: reversed
[2]
  restoration of CTGF-mediated PSC adhesion after EDTA: restored
[3]
  effect of divalent cation on HSC adhesion to CTGF4: completely abolished

## [Mg+2] [Mg^2+]
[1]
  reversal of EDTA inhibition of α5β1 binding to CTGF4: reversed
[2]
  restoration of CTGF-mediated PSC adhesion after EDTA: restored
[3]
  effect of divalent cation on HSC adhesion to CTGF4: restored

## [Mn+2] [Mn^2+]
[3]
  effect of divalent cation on HSC adhesion to CTGF4: restored

## CC=O [acetaldehyde]
[4]
  activity of pCCN2-Luc in PSC: significantly increased

## CCO [ethanol]
[4]
  activity of pCCN2-Luc in PSC: significantly increased

## [Na+].[O-][Cl+2]([O-])[O-] [sodium chlorate]
[3]; [8]
  inhibition of CTGF4-mediated HSC adhesion: Inability of HSC to adhere to CTGF4
[3]; wells coated 4 μg/ml vitronectin
  inhibition of vitronectin-mediated HSC adhesion: unaffected

## CTGF[259-272]: CTGF4 peptide that covers 87.5% of the sequence of peptide CTGF[257-272] (TPKISKPIKFELSG)
[5]
  inhibition of αvβ3 binding to CTGF4: 67%

## EENIKKGKKCIRTP (listed as Homo sapiens) [CTGF[247-260]]
[3]
  HSC adhesion supported by the coated substance: no adhesion ability

## GRGDsp
[3]; wells coated 2 μg/ml CTGF1-4, EDTA 10 mM, GRGDsp 1 mM, Echistatin 2 μM
  inhibition of CTGF1-4-mediated HSC adhesion: 45%
[3]; wells coated 2 μg/ml CTGF3-4, EDTA 10 mM, GRGDsp 1 mM, Echistatin 2 μM
  inhibition of CTGF3-4-mediated HSC adhesion: 51%
[3]; [8]
  inhibition of CTGF4-mediated HSC adhesion: 58%

## GVCTDGR [Peptide P5]
[1]; peptides 35 μM, EDTA 5 mM
  inhibition of binding between CTGF4 and integrin α5β1: blocked
[1]; peptides 35 μM
  inhibition of cell-free binding of integrin α5β1 to FN: blocked
[2]
  inhibition of PSC adhesion to CTGF4: completely inhibited
  PSC adhesion supported by the coated substance: able to support the adhesion
  inhibition of FN-mediated PSC adhesion: able to block

## IRTPAAAAPIKFELSG [Mutant 2, mutant CTGF4 protein with K261A, I262A, S263A, K264A]
[3]; mutant CTGF4 proteins
  HSC adhesion relative to wild-type CTGF4: completely unable to support HSC adhesion

## IRTPKISKPIKFELSG [CTGF[257-272]]
[1]; peptides 35 μM
  inhibition of cell-free binding of integrin α5β1 to FN: did not block
[2]
  inhibition of PSC adhesion to CTGF4: completely inhibited
  PSC adhesion supported by the coated substance: able to support the adhesion
  inhibition of FN-mediated PSC adhesion: unaffected
[5]
  inhibition of αvβ3 binding to CTGF4: completely inhibited
[5]; 35 μM peptide, 4 μg/ml VN coat
  inhibition of αvβ3 binding to vitronectin: 85%
[3]
  HSC adhesion to coated peptide, saturation: 2 µg/mL
  HSC adhesion supported by the coated substance: promoted HSC adhesion in a concentration-dependent manner

## PDGF
[4]
  activity of pCCN2-Luc in PSC: significantly increased
[6]
  PSC proliferation (DNA synthesis): significantly enhanced
[7]
  PSC migration: promoted

## chondroitinase ABC
[3]; [8]
  inhibition of CTGF4-mediated HSC adhesion: no effect

## vitronectin: ECM protein, known ligand of αvβ3 [reference compound]
[5]; 1 μg/ml integrin αvβ3
  saturation of αvβ3 binding at coating concentration: 4 µg/mL
